Experiments:
[1] = test system: caecal and large colon digesta of horses; test: Experiment 2 Part 4: fresh digesta of horses fed pelleted diet with virginiamycin; assay type: in vivo, horse; conditions: for pH, fresh digesta / L-lactate, fresh digesta / Total VFA, fresh digesta / % Acetate, fresh digesta / % Butyrate, fresh digesta / % Iso-valerate, fresh digesta / % Propionate, fresh digesta / % Valerate, fresh digesta: n = 5, mean; for % Acetate, fresh digesta / % Butyrate, fresh digesta / % Iso-valerate, fresh digesta / % Propionate, fresh digesta / % Valerate, fresh digesta: molar percentage, feed with virginiamycin
Protocol: (§1) A total of ten horses were used for this experiment. Five horses were offered 5 kg of a pelleted mixture (ground wheat 92.5%, ground lucerne chaff 5% and `Stafac 20` 2.5% to supply approximately 2.5 g virginiamycin. A further 5 horses were offered the same feed but without virginiamycin. Samples of caecal and large colon digesta were taken for analysis of pH, VFA, virginiamycin and L-lactate. Samples were also prepared as described above with buffer solution and incubated (1 flask/sample) with cornstarch (15 mg/ml diluted digesta). Following 20 hours incubation samples were taken for analysis of L-lactate and pH.

[2] = test system: caecal/large colon digesta; test: Experiment 2 Part 5: efficacy of tylosin relative to virginiamycin, digesta incubated with glucose; assay type: cell-based, horse; conditions: digesta incubated with glucose, 37°, 20 hours, mean
Protocol: An in vitro fermentation experiment was conducted to determine the efficacy of tylosin relative to virginiamycin. Samples of strained caecal and large colon digesta (16 ml) were incubated with glucose solution (60 ug/ml) (4 ml) and varying concentrations of either tylosin or virginiamycin representing […], 2.0, 4.0 ug of tylosin or virginiamycin per ml. The 25 ml containers were incubated at 37° for 20 hours. There were three replicates per treatment.

[3] = test system: mixed caecal/large colon digesta; test: Experiment 2 Part 1: in vitro fermentation of digesta with cornstarch, avoparcin, virginiamycin, flavomycin 2-32 ug/ml; assay type: cell-based, horse; design: Lactate / Total VFA: unit not given here; conditions: for pH / Acet:Prop / Lactate / Total VFA: mean
Protocol: (§2) Digesta was taken from the caecum and large colon from recently slaughtered animals and was filtered through nylon gauze (approximately 60 micron apertures). The fluid was diluted 1:1 with a buffer solution described by Bales et al. (1976) and incubated with wheat "corn starch" (with or without antibiotics) at 37° for 16 to 20 hours. Aliquots of digesta diluted with buffer (50 ml) were added to 100 ml conical flasks. The flasks were flushed with carbon dioxide before being sealed with a tightly fitting rubber cap. A 21 gauge needle was inserted through the rubber seal in order to allow gas to escape during the fermentation. On removal from the incubator sub-samples were immediately taken to measure L-lactic acid concentration and pH. For each treatment or level of antibiotic three replicate incubation flasks were used.
A range of concentrations of cornstarch providing: 0, 5, 10, 15 and 20 mg/ml diluted digesta (i.e. from 0 to 1 g cornstarch/conical flask) were tested to determine the amount required to produce a pattern of fermentation with high levels of lactic acid. Flasks were also prepared with cornstarch mixed with antibiotic premixes to provide 15 mg cornstarch/ml incubation mixture and 0, 2, 4, 8, 16 and 32 ug of avoparcin, virginiamycin or flavomycin per ml incubation mixture. After approximately 16 hour incubation at 37° samples were taken to measure lactic acid, VFA and pH.

[4] = test system: caecal and large colon contents; test: Experiment 2 Part 3: in vitro screening at 2 ug/ml in digesta of four horses; assay type: cell-based, horse; conditions: for pH / L-lactate: 2 ug antibiotic/ml, 15 mg cornstarch/ml, 20 hour incubation
Protocol: as §2
All four of the antibiotics, listed above, were incubated as previously described to provide 2 ug antibiotic and 15 mg cornstarch per ml incubation mixture. There was one flask per test and each antibiotic was incubated in digesta from both the caecum and the large colon taken from each of 4 animals. Samples of incubation fluid were taken following a 20 hour incubation and were analysed for L-lactate and pH.

[5] = test system: caecal and large colon digesta; test: Experiment 2 Part 4: digesta of virginiamycin-fed horses incubated with cornstarch; assay type: cell-based, horse; conditions: for L-lactate, incubated digesta / pH, incubated digesta: digesta of virginiamycin-fed horses incubated 20 hours with cornstarch 15 mg/ml, n = 5, mean
Protocol: as §2, §1

[6] = test system: caecal/large colon digesta; test: Experiment 2 Part 2: in vitro fermentation with cornstarch, antibiotics at or below 2 ug/ml; assay type: cell-based, horse; conditions: for L-lactate / pH: cornstarch 0.75 g per flask, 16 hours, mean
Protocol: as §2
Incubation flasks were set up as described above with cornstarch (0.75 g) containing virginiamycin, flavomycin or zinc-bacitracin a levels to provide: 0, 0.25, 0.5, 1.0 and 2 ug antibiotic/ml incubation mixture. These flasks were incubated for 16 hours. Flasks were also set up with 0.75 g cornstarch and no antibiotic equipped with a tap and sampling tube in order to take samples from the incubation vessels at various times during the fermentation. Samples were taken at the start of the incubation and at 2, 4, 6, 8, 12 and 24 h. These were analysed for L-lactate concentration and pH.

[7] = Caecum, feed with virginiamycin approx 14 hours before slaughter
[8] = Colon, feed with virginiamycin approx 14 hours before slaughter
[9] = antibiotic 2 μg/ml, cornstarch 15 mg/ml, approx 16 hour incubation
[10] = antibiotic 4 μg/ml, cornstarch 15 mg/ml, approx 16 hour incubation
[11] = antibiotic 8 μg/ml, cornstarch 15 mg/ml, approx 16 hour incubation
[12] = antibiotic 16 μg/ml, cornstarch 15 mg/ml, approx 16 hour incubation
[13] = antibiotic 32 μg/ml, cornstarch 15 mg/ml, approx 16 hour incubation

virginiamycin
pH, fresh digesta ([1]; Caecum, feed with approx 2.5 g virginiamycin approx 14 hours before slaughter): 6.2 | L-lactate, fresh digesta [1, 7]: 10.3 mmol/L | Total VFA, fresh digesta [1, 7]: 76.1 mmol/L | % Acetate, fresh digesta ([1]; Caecum): 50.3% | % Butyrate, fresh digesta ([1]; Caecum): 3.2% | % Iso-valerate, fresh digesta ([1]; Caecum): 0.0% | % Propionate, fresh digesta ([1]; Caecum): 46.5% | % Valerate, fresh digesta ([1]; Caecum): 0.5% | L-lactate, fresh digesta [1, 8]: 10.2 mmol/L | Total VFA, fresh digesta [1, 8]: 118.7 mmol/L | pH, fresh digesta [1, 8]: 6.0 | % Acetate, fresh digesta ([1]; Colon): 52.1% | % Butyrate, fresh digesta ([1]; Colon): 3.6% | % Iso-valerate, fresh digesta ([1]; Colon): 1.5% | % Propionate, fresh digesta ([1]; Colon): 44.3% | % Valerate, fresh digesta ([1]; Colon): 0.2% | molar percentage of propionate versus control animals ([1]; fresh digesta): more than twice | molar percentages of acetate, butyrate, isovalerate and valerate versus control animals ([1]; fresh digesta): reduced | pH of the digesta in the caecum or large colon versus control animals ([1]; fresh digesta): no significant effect | total concentration of VFA versus control animals ([1]; fresh digesta, p<0.001): lower total concentration of VFA | concentration of L-lactate in the caecal and large colon digesta versus control animals ([1]; fresh digesta, p<0.05): higher | L-lactate ([2]; antibiotic 0.50 μg/ml): 25 mmol/L | L-lactate ([2]; antibiotic 2.00 μg/ml): 11.0 mmol/L | L-lactate ([2]; antibiotic 4.00 μg/ml): 7.7 mmol/L | control of lactic acid build up ([3]; Experiment 2 screening programme as a whole): consistent and effective control | pH ([3]; antibiotic 2 μg/ml, cornstarch 15 mg/ml, approx 16 hour incubation at 37°): 6.57 | Acet:Prop [3, 9]: 2.9 | Lactate [3, 9]: 0.2 | Total VFA [3, 9]: 93.2 | Acet:Prop [3, 10]: 3.1 | Lactate [3, 10]: 0.2 | Total VFA [3, 10]: 80.8 | pH [3, 10]: 6.63 | Acet:Prop [3, 11]: 3.2 | Lactate [3, 11]: 0.2 | Total VFA [3, 11]: 79.7 | pH [3, 11]: 6.66 | Acet:Prop [3, 12]: 3.8 | Lactate [3, 12]: 0.0 | Total VFA [3, 12]: 71.3 | pH [3, 12]: 6.64 | Acet:Prop [3, 13]: 3.7 | Lactate [3, 13]: 0.1 | Total VFA [3, 13]: 87.1 | pH [3, 13]: 6.66 | control of lactic acid build-up ([3]; at concentrations as low as 2 g/ml, cornstarch 15 mg/ml): total control | pH ([4]; Horse 1): 5.40 | L-lactate ([4]; Horse 1, mean of caecum and large colon): 0.3 mmol/L | pH ([4]; Horse 2): 4.94 | L-lactate ([4]; Horse 2, mean of caecum and large colon): 34.1 mmol/L | pH ([4]; Horse 3): 5.17 | L-lactate ([4]; Horse 3, mean of caecum and large colon): 7.6 mmol/L | pH ([4]; Horse 4): 5.27 | L-lactate ([4]; Horse 4, mean of caecum and large colon): 12.3 mmol/L | L-lactate ([4]; Mean of 4 horses): 13.6 mmol/L | pH ([4]; Mean of 4 horses): 5.19 | pH of the incubation fluid relative to unmedicated control ([4]; all horses, 2 ug/ml, p,0.01): significant increase | L-lactate concentration relative to unmedicated control ([4]; all horses, 2 ug/ml, p<0.001): significant reduction | L-lactate, incubated digesta ([5]; Caecum): 5.5 mmol/L | pH, incubated digesta ([5]; Caecum): 5.2 | L-lactate, incubated digesta ([5]; Colon): 1.8 mmol/L | pH, incubated digesta ([5]; Colon): 5.3 | lactic acid produced following incubation with cornstarch versus controls ([5]; digesta from animals that had consumed virginiamycin, p<0.001): significantly less | pH in the incubated digesta versus controls ([5]; digesta from animals that had received virginiamycin): higher pH | L-lactate ([6]; antibiotic 0.25 μg/ml): 28.4 mmol/L | pH ([6]; antibiotic 0.25 μg/ml): 5.45 | L-lactate ([6]; antibiotic 0.50 μg/ml): 28.8 mmol/L | pH ([6]; antibiotic 0.50 μg/ml): 5.44 | L-lactate ([6]; antibiotic 1.00 μg/ml): 3.2 mmol/L | pH ([6]; antibiotic 1.00 μg/ml): 5.66 | L-lactate ([6]; antibiotic 2.00 μg/ml): 1.4 mmol/L | pH ([6]; antibiotic 2.00 μg/ml): 5.78 | control of lactic acid compared with the other antibiotics ([6]; at concentrations of 1 ug/ml): best control of lactic acid

From patent publication US5204361A, “Method for treating laminitis in equine livestock” (priority 1988, dated 1993)
